Laboratory results reported in patent US10745370B2, “Farnesyl transferase inhibitors and uses thereof” (MACKAY MEMORIAL HOSPITAL, priority 2016, dated 2020).
Several values for one entry are separate records, joined by “and”; a condition that tells them apart may be missing. Identical values can stand only once.

How the values were obtained:
rat PFTase = molecular target: T1, rat PFTase (Rattus norvegicus, UniProt Q02293+Q04631); experiment: Inhibition of farnesyl transferase (fluorescence assay); format: biochemical; conditions: mean ± SD of three independent experiments
T1 construct: purchased Jena Biosciences
Protocol: The assay was carried out in 384-well microplates with a final volume of 20 μl by the method modified from the previous report (Long et al., 2009). Briefly, 10 nM of rat PFTase (Jena Biosciences, Jena, Germany) was incubated with the tested compound or DMSO (1%) for 15 min, and then the mixture was added in a solution (50 mM Tris-HCl, pH 7.5, 5 mM MgCl2, 5 mM DTT, 0.1 mM ZnCl2, 0.2% octyl-β-D-glucopyranoside (Sigma, St. Louis, Mo.), 10 μM PFTase substrate dansyl-Gly-Cys-Val-Leu-Ser-OH, and 10 μM farnesyl pyrophosphate (Sigma, St. Louis, Mo.)) to initiate the reaction. The reaction was incubated at 37° C. for 30 min, and the fluorescence was detected by a M5 plate reader (Molecular Devices, CA, USA) at 340 nm excitation and 505 nm emission.

M2 macrophages [1] = experiment: Differentiation analysis, cell viability of M2 macrophages; format: cell-based, human; conditions: for Cell viability of M2 macrophages: IL-4-induced M2 differentiation, 6 days, control 100%
Protocol: (§1) M1 differentiation of freshly isolated CD14^+ cells was induced by the addition of lipopolysaccharide (LPS), while M2 differentiation of freshly isolated CD14^+ cells was induced by the addition of IL-4. Then, the present compounds (e.g., Mib-5, 6, 7, 8, 9, or 10) were added at the indicated dosages. 6 days later, the population of the differentiated macrophages were then determined by cell viability analysis. The cell viability was measured by cell counting kit-8 (CCK-8, Sigma). The half maximal inhibitory concentrations (IC50) of the test compounds on macrophages or dendritic cells were calculated.

M2 macrophages [2] = experiment: Cell marker expression on M2 macrophages, flow cytometry; format: cell-based, human; conditions: for CD14: M2 population after treatment: Table 5; for CD80: change in M2 population: Table 6; for CD206: change in M2: Table 7; for CD80 expression on M2 macrophages: control 47.64%; for CD14 expression on M2 macrophages: control 55.66%; for CD206 expression on M2 macrophages: control 74.49%
Protocol: as §1, with “analysis.” for “analysis. The cell viability was measured by cell counting kit-8 (CCK-8, Sigma). The half maximal inhibitory concentrations (IC50) of the test compounds on macrophages or dendritic cells were calculated.”
The expression of various types of cell markers, such as CD14, CD206, and CD80 expressed on the surface of macrophages, and CD1a, CD14, CD83, and HLA-DR expressed on the dendritic cells, were respectively detected by fluorescein isothiocyanate (FITC) and phycoerythrin (PE)-conjugated monoclonal antibodies in FACS caliber flowcytometer. Monoclonal antibodies used in this examples included anti-CD14 (IgG-FITC), anti-CD206 (IgG-FITC), anti-CD80-PE, anti-CD1a-PE, anti-CD83-PE and anti-human leukocyte antigen (HLA)-DR-PE. Results were analyzed by CellQuest software.

dendritic cells = experiment: Trypan blue exclusion analysis of dendritic cells; format: cell-based, human; conditions: 10 μM, seven days, FIG. 7
Protocol: Mononuclear cells (MNCs) were separated from the peripheral blood of healthy donors obtained with written consent by use of Ficoll-Hypaque density centrifugation, followed by positive selection with magnetic anti-CD14 microbeads.
The isolated CD14^+ cells were cultivated in Minimum Essential Medium (MEM medium) supplemented with 10% fetal bovine serum (FBS), 100 ng/ml granulocyte-macrophage colony-stimulating factor (GM-CSF, Gentaur), and 50 ng/ml interleukin-4 (IL-4, R&D), and kept in an environment of 37° C. with 5% CO2/95% air.
To evaluate the effects of the present compound on dendritic cells, the CD14^+ cells were respectively treated with 10 μM of test compound (i.e., Mib-5, Mib-6, Mib-7, Mib-8, Mib-9, and Mib-10) on day 1. Then, on day 3, the cultured medium in each well was replenished by adding half the volume of the cultured medium containing the same treatment as indicated above. Then, on day 6, a cytokine cocktail containing IL-1, IL-6, and tumor necrosis factor-α (TNF-α) was added to induce maturation. On day 7, the differentiated dendritic cells were collected and subjected to further assays, including viability assay, morphology observation, and cell marker staining.
The dye exclusion test is used to determine the number of viable cells present in a cell suspension. […] In this test, the cells were first treated with a test compound (i.e., Mib-5, 6, 7, 8, 9 or 10) for a certain period of time (e.g., 72 hours), then the cells were harvested and re-suspended in suitable buffer solution. The cell suspension was then mixed with trypan blue dye and then visually examined to determine whether cells had taken up or excluded the dye. A viable cell will have a clear cytoplasm, whereas a nonviable cell will have a blue cytoplasm. The concentration required to reduce viability by 50% (IC50) after 72 hours was extrapolated from the dose-response curves by different concentrations of the test compound using a second-order polynomial regression model and analyzing with SigmaPlot Software (Systat Software Inc., San Jose, Calif.).
In this example, the effects of the present compounds on dendritic cells were investigated. Briefly, the dendritic cells were respectively treated with 10 μM of Mib-5, Mib-6, Mib-7, Mib-8, or Mib-10. Seven days later, the cells were harvested and subjected to analysis of morphology observation, cell viability, and/or cell marker expression.

[3] = test system: skin allograft, C57BL/6 donors, BALB/c recipients; experiment: Skin allo-transplantation rejection model; format: in vivo, mice; conditions: 10 mg/kg/day intraperitoneally, 20 days, FIG. 13
Protocol: Six- to eight-week-old male C57BL/6(H-2^b) and BALB/c(H-2^d) mice were purchased from the Animal Resource Center of the National Science Council of Taiwan (Taipei, Taiwan). All animal experiments were approved by the animal ethics committee of Mackay Memorial Hospital. Surgery for skin transplantation was performed with standardized procedures. In brief, a 2×1 cm full-thickness skin graft was harvested from the C57BL/6 donor mouse. A graft bed on the BALB/c recipient was prepared. The skin graft was sutured to the recipient's graft bed. Rejection was defined as necrosis of more than 80% of the epidermal surface of the graft. The tested agents included vehicle (as control), Mib-5 (10 mg/kg/day), Mib-7 (10 mg/kg/day) and rapamycin (1.5 mg/kg/day as positive control). Treatments were administered intraperitoneally daily for consecutive 20 days until rejection was observed.
The skin allo-transplantation model, by using C57BL/6(H-2^b) mice as donors and BALB/c(H-2^d) mice as recipients, was used to examine the effect of Mib-5 and Mib-7 on allograft survival, in which rapamycin served as a positive control.

| SMILES | IC50 (rat PFTase) | Cell viability of M2 macrophages (M2 macrophages [1]) | change in M2 population of macrophages compared with control (M2 macrophages [1]; Table 4) | CD14: M2 population after treatment (M2 macrophages [2]) | CD80: change in M2 population (M2 macrophages [2]) | CD206: change in M2 (M2 macrophages [2]) | CD80 expression on M2 macrophages (M2 macrophages [2]) | CD14 expression on M2 macrophages (M2 macrophages [2]) | CD206 expression on M2 macrophages (M2 macrophages [2]) | levels of viable dendritic cells (dendritic cells) | mean survival of skin allograft in recipient mice [3] | increase of M2 population (M2 macrophages [1]; compared with control, Table 4) |
| --- | --- | --- | --- | --- | --- | --- | --- | --- | --- | --- | --- | --- |
| COC1=CC(=O)[C@@]2(c3cc(=O)c4ccc(OC)cc4o3)[C@H](C[C@]3(C)[C@@H](C(=O)O)CC=C4[C@H]3CCCC4(C)C)C(C)=CC[C@H]2C1=O [Mib-5] | < 10 µM and 7.51 µM | 86.4% | slight decrease | significant decrease | increase | increase | 53.03% | 80.33% | 78.77% | reduced | significantly prolonged | – |
| COC1=CC(=O)[C@@]2(c3cc(=O)c4c(O)cc(O)cc4o3)[C@H](C[C@]3(C)[C@@H](C(=O)O)CC=C4[C@H]3CCCC4(C)C)C(C)=CC[C@H]2C1=O [Mib-7] | < 10 µM and 8.46 µM | 136.4% | – | significant decrease | increase | increase | 49.58% | 89.76% | 88.88% | reduced | significantly prolonged | about 40% |
